Entries after “also recorded” stand apart in the source; their conditions may differ. Where two headings read alike, the source gives them in different places.
How the values were obtained:
[1] = test system: U937s, RAWs, primary monocytes, PBMCs, Jurkats, undifferentiated CD4 T cells, 293Ts, RD cells; assay: LPS-induced TNF-α production in different cell types; assay type: cell-based
Method: (A) Cell viability was measured via the MTT assay after 48 hours of treatment. (B) TNF-α levels were measured 48 hours post LPS (5 μg/ml) stimulation. (C) CD4 T cells were stimulated with either ConA (10 μg/ml) or anti-CD3/CD28 beads (10 μg/ml), and proliferation was measured via 3H-thymidine incorporation.
Next, the production of TNF-α was measured following LPS stimulation in these different cell types. […] VGX-1027-induced effects were not observed.

[2] = test system: LPS-induced lethality; assay: LPS-induced lethality; assay type: in vivo, mice
Method: VGX-1027 was administered intraperitoneally (A) or orally (p.o.) (B), and its effect on cumulative rate of lethality induced by LPS was evaluated. Data from 2 to 3 independent experiments are shown. Statistical analysis was performed by logrank (Mantel-Cox). *p<0.05 was taken as significant. Each group is compared to the vehicle-treated group.
As expected, most of the control mice either untreated or that received the vehicle of VGX-1027 succumbed to LPS-challenge within 3 days. […] In contrast, the treatment with VGX-1027 given either orally or intraperitoneally administration protect the mice from the lethal effects of LPS in a dose-dependent fashion. When given orally, VGX-1027 was effective at the dose of […] and […] both at 1.5 and 3 mg/mouse.
Lipopolysaccharide (LPS) is the most studied of all TLR agonists because it induces both local and systemic inflammation, and responses to LPS mimic many of the features of tissue injury observed during infections with Gram-negative bacteria. Injection of LPS into mice triggers production of inflammatory cytokines and symptoms that are indistinguishable from those of septic shock.

[3] = test system: type II collagen-induced arthritis; assay: Type II collagen-induced arthritis (CIA); assay type: in vivo, mice
Method: VGX-1027 was administered intraperitoneally and were measured for an arthritic score (A), cumulative arthritic score (B), hind paws edema (C), and histological score (D) were measured. Data are shown as mean values±SD form 2 independent experiments. Statistical analysis was performed by Student's t test. *p<0.0001 was taken as significant.
To induce CIA, the mice were injected intradermally at the base of the tail with […] of an emulsion containing […] of CII, and were boosted on day 21. In terms of treatment, VGX-1027 was used only as a “therapeutic” regime by administering the drug via intraperitoneal administration to mice with a clinical score equal or higher than 1. The mice were treated with vehicle, dexamethasone (0.3 mg/kg), or VGX-1027 (0.5 mg/mouse) for 10 consecutive days. The mice were assessed with the following scoring system: 0=no signs of arthritis; 1=swelling and/or redness of the paw or 1 digit; 2=involvement of 2 joints; 3=involvement of N2 joints, and 4=severe arthritis of the entire paw and digits. An arthritis index was calculated for each mouse by summing the scores for the individual paws. Other clinical severity measures were hind paw volume and histological assessment of damage; the latter was measured with the following criteria: 0=no damage; 1=edema; 2=presence of inflammatory cells; and 3-bone resorption.

[4] = Placebo-controlled ascending multiple-dose study in healthy subjects; assay type: in vivo, human; conditions: for Tmax / Cmax / AUC(0-t) / AUC: human, in vivo, oral; for Cmax / AUC(0-t) / AUC: Geo Mean; for AUC(0-t): read-out: AUC (0-24); for AUC: read-out: AUC (AUC to 12 hours)
Method: A placebo-controlled, ascending multiple-dose study was also performed to evaluate the safety and pharmacokinetics of VGX-1027 in healthy human subjects. The primary outcome to be measure was the safety as determined by vital signs, physical examinations, ECGs, clinical laboratory evaluations, and adverse event reporting. The secondary outcome measured was the pharmacokinetics on day 1 and at steady state-on day 5. Study was performed upon 4 groups of subjects: group 1: 40 mg of VGX-1027 QD; group 2: 100 mg of VGX-1027 QD; group 3: 200 mg of VGX-1027 QD; group 4: 200 mg of VGX-1027 BID. The pharmacokinetics is provided in Table 7, below, along with data from the single dose study: […]

[5] = test system: MLD-STZ-induced diabetes; assay: Streptozotocin (MLD-STZ) induced diabetes; assay type: in vivo, CBA/H mice
Method: (A) Euglycaemic female 12 week old NOD mice were treated intraperitoneally with either 20 mg/kg bw VGX-1027 or its vehicle six times a week from the 12th until the 25th week of age. An additional control group of mice was left untreated. Each group consisted of 16 mice. The data are representative of two independent experiments that were merged because of interstudies variability lower than 10%. Statistical analysis was performed by Logrank (Mantel-Cox). (B) Plasma glucose levels in control CBA/H mice receiving STZ (40 mg/kg/day, for 5 consecutive days) in conjunction with 12 daily intreperitoneum injections of vehicle (STZ), or in mice treated with STZ and VGX-1027 given as a continuous 12-day treatment. 100 mg/kg bw of VGX-1027, administered orally from day −1 to day +10. Results from a representative experiment are presented as mean±SD for seven to eight mice per group. *p<0.05 refers to treatment with MLD-STZ.
Both intraperitoneal and oral treatment with VGX-1027 suppressed clinical development of diabetes. Clinical development of diabetes was attempted to be induced in CBA/H mice by multiple low doses of streptozotocin. CBA/H mice developed sustained hyperglycemia over a 2-week period following MLD-STZ injections. As expected, CBA/H control mice treated with the vehicle of VGX-1027 either orally or intraperitoneally developed diabetes with sustained hyperglycemia developed over a 2-week period following MLD-STZ injections.
The effect of VGX-1027 with STZ-induced diabetes was also evaluated. STZ is a DNA alkylating agent with particular toxicity to pancreatic β cells. VGX-1027 was administered orally for 12 days, and STZ was administered into mice for 5 consecutive days starting a day after VGX-1027 treatment.

[6] = 100 mg, Multiple Dose (Day 1) 100 mg
[7] = 100 mg, Multiple Dose (Day 5) 100 mg
[8] = 200 mg, 200 mg BID, first dose, Day 1
[9] = 200 mg, 200 mg BID, first dose, Day 5
[10] = 200 mg, Multiple Dose (Day 1) 200 mg
[11] = 200 mg, Multiple Dose (Day 5) 200 mg

With `O=C(O)CC1CC(c2ccccc2)=NO1` (centres unmarked) [VGX-1027, 3-phenyl-4,5-dihydro-5-isoxazoleacetic acid] the TNF-α production ([1]; 293Ts) was “did not affect”, the TNF-α production ([1]; Jurkats) was “did not affect” and the “LPS-induced TNF-α production” value ([1]; PBMCs) was “inhibited”. The “LPS-induced TNF-α production” value ([1]; RAWs) was “inhibited”, the TNF-α production ([1]; RD cells) was “did not affect” and the “LPS-induced TNF-α production” value ([1]; U937s) was “inhibited”. The “LPS-induced TNF-α production” value ([1]; primary monocytes) was “inhibited”, the TNF-α production ([1]; undifferentiated CD4 T cells) was “did not affect” and the “protection from LPS lethality” value ([2]; i.p., between 0.25 and 0.5 mg/mouse) was “dose-dependent protection”. The survival ([2]; lethal dose of LPS (1 mg/mice), i.p. or oral) was “increased the survival”, the “protection from LPS lethality” value ([2]; oral, 2.5 mg/mouse) was “effective” and the “protection from LPS lethality” value ([2]; oral, 1.5 and 3 mg/mouse) was “dosed out”. The LPS-induced lethality ([2]; prophylactic regime (−24 and −1 hour prior to LPS), oral and i.p.) was “significantly reducing”, the LPS-induced lethality ([2]; therapeutic administration) was “powerfully counteracts” and the hind paw volume ([3]; after 3 days of therapy) was “significant decreases”. The mean arthritic score ([3]; after 3 days of therapy) was “significant decreases”, the “inflammation via histological measurement” value ([3]; mouse, in vivo) was “improvements” and the “clinical features of CIA” value ([3]; therapeutic, i.p. 0.5 mg/mouse, 10 days) was “attenuated; also recorded: comparable to the amount observed with dexamethasone”. The urine drug levels ([4]; CAT002 urine PK analysis) was “high drug levels in urine”, the Tmax [4, 6] was 1 h and the Cmax [4, 6] was 7570 ng/mL. It also gave an AUC(0-t) [4, 6] of 31300 ng·h/mL, a Tmax [4, 7] of 1.5 h and a Cmax [4, 7] of 6760 ng/mL. For the same compound, the AUC(0-t) [4, 7] was 23200 ng·h/mL, the Tmax [4, 8] was 1 h and the Cmax [4, 8] was 13100 ng/mL. The AUC [4, 8] was 58200 ng·h/mL, the Tmax [4, 9] was 1.5 h and the Cmax [4, 9] was 16800 ng/mL. For the same compound, the AUC [4, 9] was 70400 ng·h/mL, the Tmax [4, 10] was 1.3 h and the Cmax [4, 10] was 15700 ng/mL. For the same compound, the AUC(0-t) [4, 10] was 78100 ng·h/mL, the Tmax [4, 11] was 2 h and the Cmax [4, 11] was 14100 ng/mL. For the same compound, the AUC(0-t) [4, 11] was 65700 ng·h/mL, the dosing toxicities ([4]; up to 200 mg bid for 5 days) was “No dosing toxicities were observed” and the “diabetogenic effect of MLD-STZ” value ([5]; intraperitoneally) was “significantly reduced”. The development of hyperglycemia ([5]; orally (100 mg/kg, 12 days), 100 mg/kg) was “did not develop hyperglycemia; also recorded: significantly reducing” and the “infiltration of immune cells, atrophy and loss of islet margins in pancreas” value ([5]; orally, 12 days) was “prevented”.

Reference: patent US20150064221A1, “COMPOUNDS HAVING IMMUNOMUDULATOR ACTIVITY” (priority 2012, published 2015)
